Results reported in patent publication US11407736B2 (priority 2019, dated 2022).
Like-named read-outs stand apart in the source and are kept apart here.

Columns and labels:
U937 cells = experiment: U937 cell necroptosis assay (TNFa + zVAD, CellTiter-Glo); type: cell-based, human; details: Homo sapiens
Procedure, shortened: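 Necroptosis was induced with TNFa at 2 ng/mL final for 18 h at 37 °C, following 1 h compound pre-incubation in the presence of zVAD-fmk (60 uM for U937 plating medium, 40 uM for L929 medium). Luminescent CellTiter-Glo signal gave relative cell survival.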

RIPK1 = RIPK1 (Homo sapiens (Human), UniProt Q13546); experiment: RIPK1 ADP-Glo biochemical kinase assay; details: read-out: RIPK1 ADP-Glo Kinase (IC50)
Sequence of RIPK1 (Q13546 whole entry, species assumed): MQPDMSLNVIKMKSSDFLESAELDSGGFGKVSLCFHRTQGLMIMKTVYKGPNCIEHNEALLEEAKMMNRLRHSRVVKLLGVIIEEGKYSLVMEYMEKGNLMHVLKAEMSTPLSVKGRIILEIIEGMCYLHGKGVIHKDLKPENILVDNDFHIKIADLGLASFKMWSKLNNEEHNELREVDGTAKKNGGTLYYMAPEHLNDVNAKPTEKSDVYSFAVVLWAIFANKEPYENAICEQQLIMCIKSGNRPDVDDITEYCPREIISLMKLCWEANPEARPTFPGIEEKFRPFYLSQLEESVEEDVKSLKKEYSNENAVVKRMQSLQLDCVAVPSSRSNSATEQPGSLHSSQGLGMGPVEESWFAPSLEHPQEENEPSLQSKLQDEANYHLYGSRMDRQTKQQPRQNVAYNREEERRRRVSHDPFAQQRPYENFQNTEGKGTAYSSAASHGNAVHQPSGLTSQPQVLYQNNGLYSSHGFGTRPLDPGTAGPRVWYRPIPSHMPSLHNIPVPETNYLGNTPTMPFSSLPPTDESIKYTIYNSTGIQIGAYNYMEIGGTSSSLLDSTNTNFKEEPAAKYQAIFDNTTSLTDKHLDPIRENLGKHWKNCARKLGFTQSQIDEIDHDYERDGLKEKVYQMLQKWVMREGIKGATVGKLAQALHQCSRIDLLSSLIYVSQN
Procedure: The final reaction volume was 5.0ul.
Adding 5 μl of ADP-Glo™ terminated the reaction.

L929 cells = experiment: L929 cell necroptosis assay (TNFa + zVAD, CellTiter-Glo); type: cell-based, murine; details: Mus musculus
Procedure, shortened: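 Necroptosis was read as CellTiter-Glo luminescence 18 hours after TNFa stimulation at 37° C, 5% CO2. Prior to that, L929 cells (10K/well, plated 18 h) received fresh medium with 40 uM zVAD-fmk plus 4-fold serially diluted compound.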

[1] = U-937, U937 cells, TNFa + zVAD, read-out: U937 Zvad TNF CTG Recovery, U937, TNFa + zVAD (IC50)
[2] = L929, L929 cells, TNFa + zVAD, read-out: L929-CTG-recovery, L929, TNFa + zVAD (IC50)

SMILES | IC50 (RIPK1) | IC50 (U937 cells; [1]) | IC50 (L929 cells; [2]) | IC50 (U937 cells; U-937, read-out: U937 Zvad TNF CTG Recovery, U937, TNFa + zVAD (IC50), U937 cells, TNFa + zVAD) | IC50 (L929 cells; L929, read-out: L929-CTG-recovery, L929, TNFa + zVAD (IC50), L929 cells, TNFa + zVAD)
CN1C(=O)[C@@H](NC(=O)c2cc(Oc3ccccc3)ccn2)COc2ccc(C#CCN3CCCC3)cc21 [Compound I-116, (S)—N-(5-methyl-4-oxo-7-(3-(pyrolidin-1-yl)prop-1-yn-1-yl)-2,3,4,5-tetrahydrobenzo[b][1,4]oxazepin-3-yl)-4-phenoxypicolinamide] | 0.0234 µM | 0.0007 µM | 0.136 µM |  | 
CN1C(=O)[C@@H](NC(=O)c2cc(Oc3ccccc3)ccn2)COc2ccc(C#CCN3CCOCC3)cc21 [Compound I-117, (S)—N-(5-methyl-7-(3-morpholinoprop-1-yn-1-yl)-4-oxo-2,3,4,5-tetrahydrobenzo[b][1,4]oxazepin-3-yl)-4-phenoxypicolinamide] | 0.0316 µM | 0.0002 µM | 0.0112 µM |  | 
CN1C(=O)[C@@H](NC(=O)c2cc(Oc3ccccc3)ccn2)COc2ccc(C#CC3(O)CCC3)cc21 [Compound I-120, (S)—N-(7-((1-hydroxycyclobutyl)ethynyl)-5-methyl-4-oxo-2,3,4,5-tetrahydrobenzo[b][1,4]oxazepin-3-yl)-4-phenoxypicolinamide] | 0.0296 µM | 0.0005 µM | 0.0615 µM |  | 
CN1C(=O)[C@@H](NC(=O)c2cc(Oc3ccccc3)ccn2)COc2ccc(C#CC3(O)CCOCC3)cc21 [Compound I-123, (S)—N-(7-((4-hydroxytetrahydro-2H-pyran-4-yl)ethynyl)-5-methyl-4-oxo-2,3,4,5-tetrahydrobenzo[b][1,4]oxazepin-3-yl)-4-phenoxypicolinamide] | 0.0357 µM | 0.0006 µM | 0.0535 µM |  | 
CN1C(=O)[C@@H](NC(=O)c2cc(Cc3ccc(F)cc3)ccn2)COc2ccc(C#CC3(O)COC3)cc21 [Compound I-126, (S)-4-(4-fluorobenzyl)-N-(7-((3-hydroxyoxetan-3-yl)ethynyl)-5-methyl-4-oxo-2,3,4,5-tetrahydrobenzo[b][1,4]oxazepin-3-yl)picolinamide] | 0.0246 µM | 0.0035 µM | 0.0553 µM |  | 
COC1(C#Cc2ccc3c(c2)N(C)C(=O)[C@@H](NC(=O)c2cc(Oc4ccccc4)ccn2)CO3)COC1 [Compound I-128, (S)—N-(7-((3-methoxyoxetan-3-yl)ethynyl)-5-methyl-4-oxo-2,3,4,5-tetrahydrobenzo[b][1,4]oxazepin-3-yl)-4-phenoxypicolinamide] | 0.0197 µM | 0.0006 µM | 0.0422 µM |  | 
CN1C(=O)[C@@H](NC(=O)c2cc(Oc3ccccc3)ccn2)COc2ccc(C#CC3(OC(=O)NCCCN4CCOCC4)COC3)cc21 [Compound I-130] | 0.0308 µM | 0.0015 µM | 0.0895 µM |  | 
CN1C(=O)[C@@H](NC(=O)c2cc(Oc3ccccc3)ccn2)COc2ccc(C#CC3(O)CCN(C(=O)c4cc(Oc5ccccc5)ccn4)CC3)cc21 [Compound I-131, (S)—N-(7-((4-hydroxy-1-(4-phenoxypicolinoyl)piperidin-4-yl)ethynyl)-5-methyl-4-oxo-2,3,4,5-tetrahydrobenzo[b][1,4]oxazepin-3-yl)-4-phenoxypicolinamide] | 0.446 µM | 0.0037 µM | 0.0658 µM |  | 
CN1C(=O)[C@@H](NC(=O)c2cc(Oc3ccccc3)ccn2)COc2ccc(C#CC3(O)CCNCC3)cc21 [Compound I-132, (S)—N-(7-((4-hydroxypiperidin-4-yl)ethynyl)-5-methyl-4-oxo-2,3,4,5-tetrahydrobenzo[b][1,4]oxazepin-3-yl)-4-phenoxypicolinamide] | 0.0305 µM | 0.0359 µM | 4.6 µM |  | 
CC(=O)N1CCC(O)(C#Cc2ccc3c(c2)N(C)C(=O)[C@@H](NC(=O)c2cc(Oc4ccc(F)cc4)ccn2)CO3)CC1 [Compound I-134, (S)—N-(7-((l-acetyl-4-hydroxypiperidin-4-yl)ethynyl)-5-methyl-4-oxo-2,3,4,5-tetrahydrobenzo[b][1,4]oxazepin-3-yl)-4-(4-fluorophenoxy)picolinamide] | 0.0528 µM | 0.0274 µM | 0.608 µM |  | 
CN1CCC(O)(C#Cc2ccc3c(c2)N(C)C(=O)[C@@H](NC(=O)c2cc(Oc4ccc(F)cc4)ccn2)CO3)CC1 [Compound I-135, (S)-4-(4-fluorophenoxy)-N-(7-((4-hydroxy-1-methylpiperidin-4-yl)ethynyl)-5-methyl-4-oxo-2,3,4,5-tetrahydrobenzo[b][1,4]oxazepin-3-yl)picolinamide] | 0.111 µM | 0.224 µM | 2.63 µM |  | 
CN1CC(O)(C#Cc2ccc3c(c2)N(C)C(=O)[C@@H](NC(=O)c2cc(Oc4ccccc4)ccn2)CO3)C1 [Compound I-137, (S)—N-(7-((3-hydroxy-1-methylazetidin-3-yl)ethynyl)-5-methyl-4-oxo-2,3,4,5-tetrahydrobenzo[b][1,4]oxazepin-3-yl)-4-phenoxypicolinamide] | 0.0236 µM |  |  | 0.005 µM | 0.333 µM

Continued, in another order:

IC50 (RIPK1) | SMILES | IC50 (U937 cells; [1]) | IC50 (L929 cells; [2]) | IC50 (U937 cells; U-937, read-out: U937 Zvad TNF CTG Recovery, U937, TNFa + zVAD (IC50), U937 cells, TNFa + zVAD) | IC50 (L929 cells; L929, read-out: L929-CTG-recovery, L929, TNFa + zVAD (IC50), L929 cells, TNFa + zVAD)
0.0218 µM | CN1C(=O)[C@@H](NC(=O)c2cc(Oc3ccc(F)cc3)ccn2)COc2ccc(C#CC3(O)COC3)cc21 [Compound I-111, (S)-4-(4-fluorophenoxy)-N-(7-((3-hydroxyoxetan-3-yl)ethynyl)-5-methyl-4-oxo-2,3,4,5-tetrahydrobenzo[b][1,4]oxazepin-3-yl)picolinamide] | 0.0031 µM | 0.0999 µM |  | 
0.0151 µM | CN1C(=O)[C@@H](NC(=O)c2cc(Oc3ccccc3F)ccn2)COc2ccc(C#CC3(O)COC3)cc21 [Compound I-112, (S)-4-(2-fluorophenoxy)-N-(7-((3-hydroxyoxetan-3-yl)ethynyl)-5-methyl-4-oxo-2,3,4,5-tetrahydrobenzo[b][1,4]oxazepin-3-yl)picolinamide] | 0.0011 µM | 0.0142 µM |  | 
0.0202 µM | CN1C(=O)[C@@H](NC(=O)c2cc(Oc3ccc(F)cc3F)ccn2)COc2ccc(C#CC3(O)COC3)cc21 [Compound I-114, (S)-4-(2,4-difluorophenoxy)-N-(7-((3-hydroxyoxetan-3-yl)ethynyl)-5-methyl-4-oxo-2,3,4,5-tetrahydrobenzo[b][1,4]oxazepin-3-yl)picolinamide] | 0.0047 µM | 0.0904 µM |  | 
0.024 µM | CN1C(=O)[C@@H](NC(=O)c2cc(Oc3cccc(F)c3)ccn2)COc2ccc(C#CC3(O)COC3)cc21 [Compound I-115, (S)-4-(3-fluorophenoxy)-N-(7-((3-hydroxyoxetan-3-yl)ethynyl)-5-methyl-4-oxo-2,3,4,5-tetrahydrobenzo[b][1,4]oxazepin-3-yl)picolinamide] | 0.0008 µM | 0.0491 µM |  | 
0.0276 µM | CN1C(=O)[C@@H](NC(=O)c2cc(Oc3c(F)cccc3F)ccn2)COc2ccc(C#CC(C)(C)O)cc21 [Compound I-118, (S)-4-(2,6-difluorophenoxy)-N-(7-(3-hydroxy-3-methylbut-1-yn-1-yl)-5-methyl-4-oxo-2,3,4,5-tetrahydrobenzo[b][1,4]oxazepin-3-yl)picolinamide] | 0.001 µM | 0.083 µM |  | 
0.0598 µM | Cc1cc(Oc2ccccc2)cc(C(=O)N[C@H]2COc3ccc(C#CC(C)(C)O)cc3N(C)C2=O)n1 [Compound I-119, (S)—N-(7-(3-hydroxy-3-methylbut-1-yn-1-yl)-5-methyl-4-oxo-2,3,4,5-tetrahydrobenzo[b][1,4]oxazepin-3-yl)-6-methyl-4-phenoxypicolinamide] | 0.0146 µM | 4.05 µM |  | 
0.0935 µM | Cc1cccc(C)c1Oc1ccnc(C(=O)N[C@H]2COc3ccc(C#CC(C)(C)O)cc3N(C)C2=O)c1 [Compound I-124, (S)-4-(2,6-dimethylphenoxy)-N-(7-(3-hydroxy-3-methylbut-1-yn-1-yl)-5-methyl-4-oxo-2,3,4,5-tetrahydrobenzo[b][1,4]oxazepin-3-yl)picolinamide] | 0.0887 µM | 2.12 µM |  | 
0.0262 µM | CN1C(=O)[C@@H](NC(=O)c2cc(Cc3ccc(F)cc3)ccn2)COc2ccc(C#CC(C)(C)O)cc21 [Compound I-125, (S)-4-(4-fluorobenzyl)-N-(7-(3-hydroxy-3-methylbut-1-yn-1-yl)-5-methyl-4-oxo-2,3,4,5-tetrahydrobenzo[b][1,4]oxazepin-3-yl)picolinamide] | 0.0098 µM | 0.116 µM |  | 
0.0352 µM | CN1C(=O)[C@@H](NC(=O)c2cc(Oc3ccccc3)ccn2)COc2ccc(C#CC3(F)COC3)cc21 [Compound I-129, (S)—N-(7-((3-fluorooxetan-3-yl)ethynyl)-5-methyl-4-oxo-2,3,4,5-tetrahydrobenzo[b][1,4]oxazepin-3-yl)-4-phenoxypicolinamide] | 0.0007 µM | 0.0241 µM |  | 
0.0267 µM | CN1C(=O)[C@@H](NC(=O)c2cc(Oc3ccccc3)ccn2)COc2ccc(C#CC3(O)CNC3)cc21 [Compound I-136, (S)—N-(7-((3-hydroxyazetidin-3-yl)ethynyl)-5-methyl-4-oxo-2,3,4,5-tetrahydrobenzo[b][1,4]oxazepin-3-yl)-4-phenoxypicolinamide] | 0.0152 µM | 4.97 µM |  | 
